ChEMBL document CHEMBL4715869, “N-(Pyrimidin-2-yl)-1,2,3,4-tetrahydroisoquinolin-6-amine Derivatives as Selective Janus Kinase 2 Inhibitors for the Treatment of Myeloproliferative Neoplasms” (J Med Chem, 2020)
The source made the active and inactive calls. No cut-off for these calls is given here.

What was measured:
[1] = Cytotoxicity against rat H9c2(2-1) cells assessed as reduction in cell viability incubated for 72 hrs by MTT assay; format: cell-based; conditions: H9c2, 72 h
[2] = target: Non-receptor tyrosine-protein kinase TYK2 (Homo sapiens, UniProt P29597); experiment: Inhibition of recombinant human TYK2 (875 to end residues) using GGMEDIYFEFMGGKKK as substrate incubated for 40 mins in presence of [gamma33P]ATP by scintillation counting based radiometry assay
[3] = tested on: SET-2; experiment: Induction of apoptosis in human SET-2 cells assessed as live cells at 0.8 uM incubated for 24 hrs by Annexin V/PI staining based flow cytometric analysis (reference value: 96.23 %); format: functional
[4] = tested on: SET-2; experiment: Induction of apoptosis in human SET-2 cells assessed as early apoptotic cells at 0.05 uM incubated for 24 hrs by Annexin V/PI staining based flow cytometric analysis (reference value: 1.47 %); format: functional
[5] = organism: Homo sapiens; experiment: Selectivity index, ratio of IC50 for inhibition of FLT3 ITD mutant in human MOLM13 cells to IC50 for inhibition of JAK2 V617F mutant in human SET-2 cells; format: cell-based
[6] = tested on: Vero; experiment: Cytotoxicity against African green monkey Vero cells assessed as reduction in cell viability incubated for 72 hrs by MTT assay; format: cell-based; conditions: Chlorocebus sabaeus
[7] = target: Tyrosine-protein kinase JAK1 (Homo sapiens, UniProt P23458); experiment: Inhibition of human JAK1 (866 to end residues) using GEEPLYWSFPAKKK as substrate after 40 mins by [gamma-33ATP] radiometric assay
[8] = tested on: SET-2; experiment: Induction of apoptosis in human SET-2 cells assessed as necrotic cells at 0.4 uM incubated for 24 hrs by Annexin V/PI staining based flow cytometric analysis (reference value: 0.78%); format: functional
[9] = tested on: Receptor-type tyrosine-protein kinase FLT3 (Homo sapiens), P36888 [UNDEFINED MUTATION]; experiment: Inhibition of FLT3 ITD mutant in human MOLM13 cells assessed as residual activity at 100 nM relative to control; format: cell-based; conditions: MOLM-13
[10] = Toxicity in Balb/c mouse assessed as effect on hematocrit at 30 to 60 mg/kg, po administered daily for 14 days; format: organism-based; conditions: in vivo, 336 h, dose 30-60 mg/kg, time 14 day
[11] = Intrinsic clearance in rat liver microsomes; format: ADME, Microsome; conditions: read-out: CLH (converted)
[12] = Toxicity in NOD/SCID mouse xenografted with human SET2 cells assessed as animal survival at 15 mg/kg, po qd administered for 16 days and measured every 2 days; format: organism-based; conditions: in vivo, 384 h, time 16 day
[13] = Elimination half life in male Sprague-Dawley rat at 5 mg/kg, po administered via gavage measured upto 24 hrs by LC/MS/MS analysis; format: ADME, organism-based; conditions: in vivo, read-out: beta t1/2 (converted)
[14] = tested on: SET-2; experiment: Induction of apoptosis in human SET-2 cells assessed as live cells at 0.05 uM incubated for 24 hrs by Annexin V/PI staining based flow cytometric analysis (reference value: 96.23 %); format: functional
[15] = Selectivity index, ratio of IC50 for inhibition of recombinant human TYK2 (875 to end residues) to IC50 for inhibition of recombinant human JAK2 (808 to end residues)
[16] = Oral bioavailability in Sprague-Dawley rat at 5 mg/kg administered via gavage measured upto 24 hrs by LC/MS/MS analysis; format: ADME, organism-based; conditions: in vivo
[17] = tested on: Tyrosine-protein kinase JAK2 (Mus musculus), Q62120 [V617F]; experiment: Inhibition of JAK2 V617F mutant in mouse BAF3 cells assessed as decrease in STAT5 phosphorylation at 50 nM after 2 hrs by Western blot analysis; format: cell-based
[18] = tested on: SET-2; experiment: Induction of apoptosis in human SET-2 cells assessed as early apoptotic cells at 0.4 uM incubated for 24 hrs by Annexin V/PI staining based flow cytometric analysis (reference value: 1.47 %); format: functional
[19] = tested on: BaF3; experiment: Antitumor activity against mouse BAF3 cells harboring JAK2 V617F mutant implanted in Balb/c mouse assessed as decrease in liver weight at 30 mg/kg, po qd administered starting from day 4 to 20 and measured on day 25 relative to control; format: functional; parameters: scale not given: the % may be the effect or the level left; conditions: time 21 day
[20] = Metabolic stability in rat liver microsomes assessed as half-life; format: ADME, Microsome
[21] = Elimination half life in male Sprague-Dawley rat at 5 mg/kg, iv administered […] measured upto 24 hrs by LC/MS/MS analysis; format: ADME, organism-based; conditions: in vivo, read-out: beta t1/2 (converted)
[22] = tested on: SET-2; experiment: Antitumor activity against human SET2 cells xenografted in NOD/SCID mouse assessed as tumor growth inhibition at 60 mg/kg, po qd administered for 16 days and measured every 2 days relative to control; format: functional; conditions: SET-2, po, 384 h, time 16 day, read-out: TGI
[23] = tested on: SET-2; experiment: Induction of apoptosis in human SET-2 cells assessed as necrotic cells at 0.8 uM incubated for 24 hrs by Annexin V/PI staining based flow cytometric analysis (reference value: 0.78%); format: functional
[24] = tested on: BaF3; experiment: Antitumor activity against mouse BAF3 cells harboring JAK2 V617F mutant implanted in Balb/c mouse assessed as decrease in spleen weight at 60 mg/kg, po qd administered starting from day 4 to 20 and measured on day 25 relative to control; format: functional; parameters: scale not given: the % may be the effect or the level left; conditions: time 21 day
[25] = tested on: SET-2; experiment: Induction of apoptosis in human SET-2 cells assessed as early apoptotic cells at 0.2 uM incubated for 24 hrs by Annexin V/PI staining based flow cytometric analysis (reference value: 1.47 %); format: functional
[26] = tested on: SET-2; experiment: Induction of apoptosis in human SET-2 cells assessed as late apoptotic cells at 0.05 uM incubated for 24 hrs by Annexin V/PI staining based flow cytometric analysis (reference value: 1.52%); format: functional

Non-receptor tyrosine-protein kinase TYK2, sequence (P29597 whole entry): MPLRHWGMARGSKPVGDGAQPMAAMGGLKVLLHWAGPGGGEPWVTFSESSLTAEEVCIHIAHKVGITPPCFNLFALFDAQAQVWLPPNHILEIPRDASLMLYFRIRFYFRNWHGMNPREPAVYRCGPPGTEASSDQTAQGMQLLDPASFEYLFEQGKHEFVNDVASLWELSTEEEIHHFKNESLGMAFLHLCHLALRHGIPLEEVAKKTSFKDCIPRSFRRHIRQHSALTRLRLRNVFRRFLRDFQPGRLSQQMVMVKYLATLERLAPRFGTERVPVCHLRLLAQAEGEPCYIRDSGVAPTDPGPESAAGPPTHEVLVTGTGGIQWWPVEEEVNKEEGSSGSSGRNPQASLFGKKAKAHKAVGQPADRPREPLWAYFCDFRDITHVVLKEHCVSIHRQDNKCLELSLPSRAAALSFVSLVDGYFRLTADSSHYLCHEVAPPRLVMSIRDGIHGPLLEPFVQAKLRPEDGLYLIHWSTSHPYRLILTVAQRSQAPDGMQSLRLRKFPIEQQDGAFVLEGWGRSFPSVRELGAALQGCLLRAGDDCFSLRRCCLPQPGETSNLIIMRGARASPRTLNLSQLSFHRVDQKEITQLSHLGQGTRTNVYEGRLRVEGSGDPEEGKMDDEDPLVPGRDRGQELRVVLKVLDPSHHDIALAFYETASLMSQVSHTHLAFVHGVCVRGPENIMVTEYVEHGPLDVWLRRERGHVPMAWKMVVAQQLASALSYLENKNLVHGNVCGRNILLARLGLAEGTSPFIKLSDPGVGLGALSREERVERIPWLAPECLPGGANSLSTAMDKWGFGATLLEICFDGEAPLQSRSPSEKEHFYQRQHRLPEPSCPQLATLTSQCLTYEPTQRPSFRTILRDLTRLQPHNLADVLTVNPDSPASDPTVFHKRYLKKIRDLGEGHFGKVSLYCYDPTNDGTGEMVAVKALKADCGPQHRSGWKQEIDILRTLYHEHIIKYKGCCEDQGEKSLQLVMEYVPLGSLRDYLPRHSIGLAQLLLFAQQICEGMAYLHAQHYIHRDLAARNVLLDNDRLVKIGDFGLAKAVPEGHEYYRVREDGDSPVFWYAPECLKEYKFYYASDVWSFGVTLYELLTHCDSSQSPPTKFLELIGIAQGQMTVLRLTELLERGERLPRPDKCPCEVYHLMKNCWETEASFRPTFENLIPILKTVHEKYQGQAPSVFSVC
Tyrosine-protein kinase JAK2 (Mus musculus), Q62120 [V617F], sequence (Q62120 as listed by the source): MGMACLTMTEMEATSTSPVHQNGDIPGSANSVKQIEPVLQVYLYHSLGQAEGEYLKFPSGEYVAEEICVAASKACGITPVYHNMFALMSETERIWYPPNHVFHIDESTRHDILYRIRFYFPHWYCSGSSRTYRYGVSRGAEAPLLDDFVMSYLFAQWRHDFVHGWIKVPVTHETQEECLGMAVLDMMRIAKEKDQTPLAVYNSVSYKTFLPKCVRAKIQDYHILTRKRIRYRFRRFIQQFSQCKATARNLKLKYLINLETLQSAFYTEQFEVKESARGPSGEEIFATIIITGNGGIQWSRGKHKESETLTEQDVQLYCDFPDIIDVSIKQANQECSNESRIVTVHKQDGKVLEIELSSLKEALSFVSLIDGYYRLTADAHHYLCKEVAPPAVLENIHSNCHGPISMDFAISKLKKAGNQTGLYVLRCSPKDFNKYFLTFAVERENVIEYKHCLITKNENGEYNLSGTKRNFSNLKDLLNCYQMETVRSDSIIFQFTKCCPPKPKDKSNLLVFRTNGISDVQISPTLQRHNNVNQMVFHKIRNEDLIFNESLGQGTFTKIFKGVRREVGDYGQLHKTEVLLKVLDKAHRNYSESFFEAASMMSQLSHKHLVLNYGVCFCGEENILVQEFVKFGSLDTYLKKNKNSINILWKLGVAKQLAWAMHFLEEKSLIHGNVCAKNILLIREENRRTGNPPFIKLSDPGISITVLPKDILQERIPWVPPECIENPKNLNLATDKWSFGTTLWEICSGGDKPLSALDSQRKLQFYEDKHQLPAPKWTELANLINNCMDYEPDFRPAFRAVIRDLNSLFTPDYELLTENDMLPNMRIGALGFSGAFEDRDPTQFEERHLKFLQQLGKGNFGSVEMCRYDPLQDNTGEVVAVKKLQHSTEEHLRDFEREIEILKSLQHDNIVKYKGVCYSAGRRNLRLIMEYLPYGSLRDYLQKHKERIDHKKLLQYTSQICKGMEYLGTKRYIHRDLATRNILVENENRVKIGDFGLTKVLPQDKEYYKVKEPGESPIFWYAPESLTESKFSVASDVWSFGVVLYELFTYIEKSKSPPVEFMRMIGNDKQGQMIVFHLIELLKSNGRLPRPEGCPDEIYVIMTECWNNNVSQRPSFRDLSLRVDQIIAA
Tyrosine-protein kinase JAK1, sequence (P23458 whole entry): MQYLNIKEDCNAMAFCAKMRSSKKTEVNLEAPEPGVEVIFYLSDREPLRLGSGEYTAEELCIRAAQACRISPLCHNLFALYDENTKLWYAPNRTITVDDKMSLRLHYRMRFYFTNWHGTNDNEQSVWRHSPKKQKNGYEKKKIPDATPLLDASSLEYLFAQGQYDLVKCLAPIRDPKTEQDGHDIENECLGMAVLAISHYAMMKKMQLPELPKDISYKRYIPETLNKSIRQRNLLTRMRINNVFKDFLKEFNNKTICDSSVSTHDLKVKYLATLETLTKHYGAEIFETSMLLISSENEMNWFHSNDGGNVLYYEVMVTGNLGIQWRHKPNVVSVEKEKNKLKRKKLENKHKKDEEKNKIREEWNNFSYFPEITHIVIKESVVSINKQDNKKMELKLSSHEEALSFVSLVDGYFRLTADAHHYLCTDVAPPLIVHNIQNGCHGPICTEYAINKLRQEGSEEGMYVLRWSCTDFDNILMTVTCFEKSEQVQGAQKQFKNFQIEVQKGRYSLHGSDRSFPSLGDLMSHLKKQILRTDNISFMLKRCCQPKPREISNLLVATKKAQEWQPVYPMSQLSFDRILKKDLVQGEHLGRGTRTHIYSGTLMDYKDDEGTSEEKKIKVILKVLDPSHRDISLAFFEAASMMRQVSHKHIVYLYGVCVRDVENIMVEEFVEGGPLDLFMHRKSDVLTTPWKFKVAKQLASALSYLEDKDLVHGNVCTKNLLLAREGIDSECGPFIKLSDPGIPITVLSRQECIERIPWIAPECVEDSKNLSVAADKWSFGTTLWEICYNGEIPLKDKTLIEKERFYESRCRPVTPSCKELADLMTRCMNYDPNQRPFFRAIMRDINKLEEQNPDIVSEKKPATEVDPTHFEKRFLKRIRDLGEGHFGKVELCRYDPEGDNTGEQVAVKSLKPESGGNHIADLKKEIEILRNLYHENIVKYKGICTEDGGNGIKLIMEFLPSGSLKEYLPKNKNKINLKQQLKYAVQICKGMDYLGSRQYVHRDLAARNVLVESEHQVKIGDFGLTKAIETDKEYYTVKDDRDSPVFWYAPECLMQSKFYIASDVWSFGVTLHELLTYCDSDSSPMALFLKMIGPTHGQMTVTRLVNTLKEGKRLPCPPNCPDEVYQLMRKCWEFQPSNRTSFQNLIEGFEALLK
Receptor-type tyrosine-protein kinase FLT3 (Homo sapiens), P36888 [UNDEFINED MUTATION], sequence (P36888 whole entry, looked up, change not shown): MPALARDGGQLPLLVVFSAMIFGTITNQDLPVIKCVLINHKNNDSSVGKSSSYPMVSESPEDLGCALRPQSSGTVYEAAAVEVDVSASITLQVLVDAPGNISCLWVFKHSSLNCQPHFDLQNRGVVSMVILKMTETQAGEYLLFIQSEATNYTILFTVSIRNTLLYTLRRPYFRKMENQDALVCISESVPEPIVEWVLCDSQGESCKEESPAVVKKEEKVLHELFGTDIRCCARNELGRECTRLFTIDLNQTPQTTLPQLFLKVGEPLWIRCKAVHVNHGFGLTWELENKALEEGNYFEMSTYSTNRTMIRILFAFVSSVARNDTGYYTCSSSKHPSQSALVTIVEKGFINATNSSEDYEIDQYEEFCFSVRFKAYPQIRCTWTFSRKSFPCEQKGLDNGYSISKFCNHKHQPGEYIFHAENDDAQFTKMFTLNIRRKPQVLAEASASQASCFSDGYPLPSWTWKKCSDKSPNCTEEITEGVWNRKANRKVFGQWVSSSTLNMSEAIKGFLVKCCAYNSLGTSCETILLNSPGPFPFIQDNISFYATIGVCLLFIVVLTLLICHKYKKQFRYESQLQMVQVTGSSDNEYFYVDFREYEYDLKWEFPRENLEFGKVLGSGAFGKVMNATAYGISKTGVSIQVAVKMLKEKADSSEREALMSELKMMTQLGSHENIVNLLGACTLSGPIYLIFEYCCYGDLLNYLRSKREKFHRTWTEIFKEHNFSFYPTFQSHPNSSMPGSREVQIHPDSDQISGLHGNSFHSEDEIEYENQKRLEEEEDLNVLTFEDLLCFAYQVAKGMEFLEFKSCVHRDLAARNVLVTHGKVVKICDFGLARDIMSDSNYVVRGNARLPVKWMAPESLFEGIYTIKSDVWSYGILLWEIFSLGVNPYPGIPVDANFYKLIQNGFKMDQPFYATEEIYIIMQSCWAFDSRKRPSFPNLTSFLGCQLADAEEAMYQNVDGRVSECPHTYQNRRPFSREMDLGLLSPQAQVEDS

Compound: Cc1cnc(Nc2ccc3c(c2)CCN(C(=O)/C=C/CN(C)C)C3)nc1-c1cnn(C(C)C)c1
- IC50 [1]: 6.93 µM
- IC50 [2]: 0.075 µM
- Activity [3]: 49.33%
- Activity [4]: 2.7%
- Ratio IC50 [5]: 75.2
- IC50 [6]: 6.75 µM
- IC50 [7]: 0.042 µM
- Activity [8]: 0.48%
- Activity [9]: 54%
- Activity [10]: Toxic
- CLint scaled [11]: 423 mL/min/kg
- Activity [12]: Non-Toxic
- half-life [13]: 1.8 h
- Activity [14]: 94.6%
- Ratio IC50 [15]: 25
- bioavailability [16]: 25.7%
- inhibition [17]: Active
- Activity [18]: 5.92%
- Activity [19]: 36.2%
- half-life [20]: 0.91 h
- half-life [21]: 4 h
- inhibition in vivo at 60 mg/kg [22]: 82.3%
- Activity [23]: 1.37%
- Activity [24]: 77.1%
- Activity [25]: 3.36%
- Activity [26]: 2.34%
